From ChEMBL document CHEMBL1135763, “Discovery of aminothiazole inhibitors of cyclin-dependent kinase 2: synthesis, X-ray crystallographic analysis, and biological activities” (J Med Chem, 2002)
Blank lines part the entries; values can stand above or below the molecule they belong to.

Legend:
[1] = target: Cyclin-dependent kinase 2/cyclin E (Homo sapiens, UniProt P24941); assay: Inhibitory activity against baculovirus expressed Cyclin dependent kinase 2-cyclinE; type: protein-complex assay
A2780 = assay: cells; conditions: Homo sapiens
Description: Cytotoxic activity against A2780 human ovarian carcinoma cell line

[2] = target: Cyclin-dependent kinase 1/cyclin B (Homo sapiens, UniProt P06493); assay: Inhibitory activity against baculovirus expressed Cyclin dependent kinase 1-cyclinB; type: protein-complex assay
[3] = target: Cyclin-dependent kinase 4/cyclin D1 (Homo sapiens, UniProt P11802); assay: Inhibitory activity against baculovirus expressed Cyclin dependent kinase 4-cyclinD1; type: protein-complex assay
Cyclin-dependent kinase 4/cyclin D1, sequence (P11802 whole entry): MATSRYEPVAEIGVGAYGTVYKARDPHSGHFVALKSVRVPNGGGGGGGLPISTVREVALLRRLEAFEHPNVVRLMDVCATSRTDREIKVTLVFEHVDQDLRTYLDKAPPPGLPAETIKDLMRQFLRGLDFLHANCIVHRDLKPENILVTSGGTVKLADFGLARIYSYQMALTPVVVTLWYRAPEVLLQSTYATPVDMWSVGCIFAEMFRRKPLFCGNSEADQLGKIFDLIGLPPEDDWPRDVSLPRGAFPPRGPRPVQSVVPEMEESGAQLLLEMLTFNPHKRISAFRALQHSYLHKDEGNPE
Cyclin-dependent kinase 4/cyclin D1, sequence (P24385 whole entry, further chain): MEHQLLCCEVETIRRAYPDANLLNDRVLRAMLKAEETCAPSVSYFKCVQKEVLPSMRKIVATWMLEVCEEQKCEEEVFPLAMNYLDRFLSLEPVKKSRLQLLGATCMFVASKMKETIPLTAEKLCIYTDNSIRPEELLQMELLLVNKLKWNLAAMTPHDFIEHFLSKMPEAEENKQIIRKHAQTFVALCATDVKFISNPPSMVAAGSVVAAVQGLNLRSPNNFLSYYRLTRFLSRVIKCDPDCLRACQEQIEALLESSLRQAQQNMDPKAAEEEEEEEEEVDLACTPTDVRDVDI

Compound: CC(=O)Nc1ncc(SCc2cccnc2)s1
IC50 [1]: 680 nM

Compound: CC(=O)Nc1ncc(SCCc2cccc3ccccc23)s1
IC50 [1]: > 1000 nM

Compound: CC(=O)Nc1ncc(SCC2CCCCC2)s1
IC50 [1]: > 1000 nM

Compound: COC(=O)C(Sc1cnc(NC(C)=O)s1)C1CCCCC1 (stereo not drawn)
IC50 [1]: > 1000 nM

Compound: CCOC(=O)CCCCCSc1cnc(NC(C)=O)s1
IC50 [1]: > 1000 nM

Compound: CC(=O)Nc1ncc(SCCOc2ccccc2)s1
IC50 [1]: > 1000 nM

Compound: CC(=O)Nc1ncc(SCC(=O)CC(C)(C)C)s1
IC50 [1]: 1840 nM

Compound: CCN(C)C(=O)CSc1cnc(NC(C)=O)s1
IC50 [1]: > 25000 nM

Compound: CC(=O)Nc1ncc(SCc2c(C)noc2C)s1
IC50 [1]: > 1000 nM

Compound: CC(=O)Nc1ncc(SCCc2ccccc2)s1
IC50 [1]: 12600 nM

Compound: CC(=O)Nc1ncc(SCc2ccncc2)s1
IC50 [1]: > 1000 nM

Compound: CC(=O)Nc1ncc(SCc2ccccn2)s1
IC50 [1]: > 1000 nM

Compound: CC(=O)Nc1ncc(SCC(=O)OCc2ccccc2)s1
IC50 [1]: 340 nM
IC50 [2]: 2380 nM
IC50 [3]: 19100 nM

Compound: CC(=O)Nc1nc(CSc2cnc(NC(C)=O)s2)cs1
IC50 [1]: > 1000 nM

Compound: CC(=O)Nc1ncc(SCC(=O)OC(C)(C)C)s1
IC50 [1]: 50 nM
IC50 [2]: 440 nM
IC50 [3]: 5380 nM

Compound: CC(=O)Nc1ncc(SCC(=O)O)s1
IC50 [1]: > 25000 nM

Compound: COCCSc1cnc(NC(C)=O)s1
IC50 [1]: > 1000 nM

Compound: CC(=O)Nc1ncc(SCc2ncc(CC3CCCCC3)o2)s1
IC50 [1]: 4 nM
IC50 (A2780): 1540 nM
IC50 [2]: 30 nM
IC50 [3]: 640 nM

Compound: COC(=O)C(Sc1cnc(NC(C)=O)s1)c1ccccc1 (stereo not drawn)
IC50 [1]: > 1000 nM

Compound: CCc1coc(CSc2cnc(NC(C)=O)s2)n1
IC50 [1]: 200 nM

Compound: COC(=O)c1ccc(CSc2cnc(NC(C)=O)s2)o1
IC50 [1]: > 1000 nM

Compound: CC(=O)Nc1ncc(SCc2ncc(-c3ccccc3)o2)s1
IC50 [1]: 350 nM
IC50 [3]: 4510 nM

Compound: CC(=O)Nc1nnc(SCC(=O)OC(C)(C)C)s1
IC50 [1]: > 25000 nM

Compound: CC(=O)Nc1ncc(SCc2nnsc2Cl)s1
IC50 [1]: > 1000 nM

Compound: CCC(CC)CSc1cnc(NC(C)=O)s1
IC50 [1]: > 1000 nM

Second part, the molecule after the results:

IC50 [1]: 3 nM
IC50 (A2780): 1500 nM
IC50 [2]: 30 nM
IC50 [3]: > 1000 nM
Compound: CC(C)(C)c1cnc(CSc2cnc(NC(=O)Nc3c(Cl)cccc3Cl)s2)o1

IC50 [1]: 50 nM
IC50 (A2780): 120 nM
Compound: CCNC(=O)Nc1ncc(SCc2ncc(C(C)(C)C)o2)s1

IC50 [1]: 6 nM
IC50 (A2780): 200 nM
IC50 [2]: 60 nM
IC50 [3]: 1070 nM
Compound: CC(=O)Nc1ncc(SCc2ncc(C(C)C)o2)s1

IC50 [1]: > 1000 nM
Compound: CC(=O)Nc1ncc(SCC(C)C)s1

IC50 [1]: 250 nM
IC50 [2]: > 250 nM
Compound: CC(C)C(=O)Nc1ncc(S(=O)(=O)Cc2ncc(C(C)(C)C)o2)s1

IC50 [1]: 2810 nM
Compound: CC(=O)Nc1ncc(SCC(O)CC(C)(C)C)s1 (stereo not drawn)

IC50 [1]: 5 nM
IC50 (A2780): 200 nM
IC50 [2]: 60 nM
IC50 [3]: 1070 nM
Compound: CCc1cnc(CSc2cnc(NC(=O)C(C)C)s2)o1

IC50 [1]: 2 nM
IC50 (A2780): 240 nM
IC50 [2]: 10 nM
IC50 [3]: 390 nM
Compound: CC(C)(C)c1cnc(CSc2cnc(NC(=O)Nc3c(F)cccc3F)s2)o1

IC50 [1]: 90 nM
IC50 [3]: 5160 nM
Compound: CC(=O)Nc1ncc(SCc2ncc(C)o2)s1

IC50 [1]: 150 nM
IC50 (A2780): 1040 nM
Compound: CC(C)(C)c1cnc(CSc2cnc(NC(=O)OCc3ccccc3)s2)o1

IC50 [1]: 3 nM
Compound: CC(C)(C)c1ncc(CSc2cnc(NC(=O)Cc3ccccc3)s2)o1

IC50 [1]: 4280 nM
IC50 (A2780): 2860 nM
Compound: CC(C)(C)c1cnc(CSc2cnc(NS(=O)(=O)c3ccccc3)s2)o1

IC50 [1]: 140 nM
IC50 [2]: 140 nM
IC50 [3]: > 25000 nM
Compound: CC(C)C(=O)Nc1ncc([S+]([O-])Cc2ncc(C(C)(C)C)o2)s1 (stereo not drawn)

IC50 [1]: 6 nM
IC50 (A2780): 900 nM
IC50 [3]: 3130 nM
Compound: C[C@@H](C(=O)Nc1ncc(SCc2ncc(C(C)(C)C)o2)s1)c1ccccc1

IC50 [1]: 11 nM
IC50 (A2780): 900 nM
IC50 [2]: 19 nM
IC50 [3]: 900 nM
Compound: CC(C)(C)c1cnc(CSc2cnc(NC(=O)Nc3ccc(F)cc3)s2)o1

IC50 [1]: 360 nM
Compound: CC(=O)Nc1ncc(SCc2nc(C)c(C)o2)s1

IC50 [1]: 60 nM
Compound: C[C@H](C(=O)Nc1ncc(SCc2ncc(C(C)(C)C)o2)s1)c1ccccc1

IC50 [1]: > 25000 nM
Compound: CC(C)C(=O)N(C)c1ncc(SCc2ncc(C(C)(C)C)o2)s1

IC50 [3]: 960 nM
Compound: CC(C)(C)c1cnc(CSc2cnc(NC(=O)c3ccccc3)s2)o1

IC50 [1]: 25 nM
IC50 (A2780): 640 nM
IC50 [2]: 18 nM
IC50 [3]: 2990 nM
Compound: CC(C)OC(=O)Nc1ncc(SCc2ncc(C(C)(C)C)o2)s1

IC50 [1]: 5 nM
IC50 (A2780): 50 nM
IC50 [2]: 30 nM
IC50 [3]: 900 nM
Compound: CC(C)C(=O)Nc1ncc(SCc2ncc(C(C)(C)C)o2)s1

IC50 [1]: 17 nM
IC50 (A2780): 250 nM
IC50 [2]: 90 nM
IC50 [3]: 3480 nM
Compound: CC(C)(C)C(=O)Nc1ncc(SCc2ncc(C(C)(C)C)o2)s1

IC50 [1]: > 25000 nM
Compound: CC(=O)Nc1cnc(SCc2ncc(C(C)(C)C)o2)s1

IC50 [1]: 5 nM
IC50 [2]: 40 nM
IC50 [3]: 690 nM
Compound: CC(=O)Nc1ncc(SCc2ncc(C(C)(C)C)o2)s1

IC50 [1]: 1740 nM
Compound: CC(=O)Nc1ncc(SCCOC(C)(C)C)s1
